# Reference: patent US20240209053A1 (Protagonist Therapeutics, Inc., priority 2021, published 2024)
# Numbered stars: 1 amine (or outer) side, 2 acyl side, 3 side chain; on linkers, the order of the positions; unused ones are H or OH. Bridge positions count the residues as written; N and C are the ends. Square brackets hold non-standard residues; d marks the D form. Side chains are listed from the residue outwards. Peptide text beside a SMILES is read from it. * marks the point of attachment. Nle(6-ylidene) = O=C([C@H](CCCC=[*:3])N[*:1])[*:2]; Dip = N[C@H](C(=O)O)C(c1ccccc1)c1ccccc1; Hag = O=C([C@H](CCC=[*:3])N[*:1])[*:2]; Palmitoyl = CCCCCCCCCCCCCCCC(=O)*; NMeF = CN[C@@H](Cc1ccccc1)C(=O)O; β3hF = N[C@H](CC(=O)O)Cc1ccccc1; Isovaleryl = CC(C)CC(=O)*; Ahx = NCCCCCC(=O)O; GABA = NCCCC(=O)O
# What was measured:
# [1] = target: T1, human ferroportin (SLC40A1) (Homo sapiens, UniProt Q9NP59); assay: FPN activity assay: internalization/degradation of ferroportin-GFP in stably transfected HEK293 cells (decrease in GFP fluorescence); type: cell-based; settings: compound incubated at least 18 hours
# T1 sequence (Q9NP59 1-571): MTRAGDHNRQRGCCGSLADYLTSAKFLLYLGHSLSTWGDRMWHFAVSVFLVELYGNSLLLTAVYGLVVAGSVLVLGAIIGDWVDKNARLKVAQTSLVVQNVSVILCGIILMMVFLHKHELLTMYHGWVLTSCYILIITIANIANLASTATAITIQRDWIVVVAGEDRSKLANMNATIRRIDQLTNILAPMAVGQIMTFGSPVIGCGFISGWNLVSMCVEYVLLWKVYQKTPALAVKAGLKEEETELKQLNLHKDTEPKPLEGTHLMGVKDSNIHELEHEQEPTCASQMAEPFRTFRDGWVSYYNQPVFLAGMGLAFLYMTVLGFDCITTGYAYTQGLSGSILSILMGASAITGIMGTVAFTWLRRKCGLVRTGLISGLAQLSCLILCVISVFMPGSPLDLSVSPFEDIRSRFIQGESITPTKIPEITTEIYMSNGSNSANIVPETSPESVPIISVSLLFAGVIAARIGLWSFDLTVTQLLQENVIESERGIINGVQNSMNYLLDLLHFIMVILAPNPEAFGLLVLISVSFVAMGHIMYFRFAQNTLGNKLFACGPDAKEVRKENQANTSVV
# Protocol: Peptide analogues were tested in vitro for induction of internalization of the human ferroportin protein. Following internalization, the ferroporin protein is degraded. The assay used (FPN activity assay) measures a decrease in fluorescence of the receptor. The cDNA encoding the human ferroportin (SLC40A1) was cloned from a cDNA clone from Origene (NM_014585). The DNA encoding the ferroportin was amplified by PCR using primers also encoding terminal restriction sites for subcloning, but without the termination codon. The ferroportin receptor was subcloned into a mammalian GFP expression vector containing a neomycin (G418) resistance marker in such that the reading frame of the ferroportin was fused in frame with the GFP protein. The fidelity of the DNA encoding the protein was confirmed by DNA sequencing. HEK293 cells were used for transfection of the ferroportin-GFP receptor expression plasmid. The cells were grown according to standard protocol in growth medium and transfected with the plasmids using Lipofectamine (manufacturer's protocol, Invitrogen). The cells stably expressing ferroportin-GFP were selected using G418 in the growth medium (in that only cells that have taken up and incorporated the cDNA expression plasmid survive) and sorted several times on a Cytomation MoFloTM cell sorter to obtain the GFP-positive cells (488 nm/530 nm). The cells were propagated and frozen in aliquots. […] Compound was added to desired final concentration for at least 18 hours in the incubator. […] Compound was added to desired final concentration for at least 18 hours but no more than 24 hours in the incubator. […] The “RI” in RI-Mini-Hepcidin refers to Retro Inverse. A retro inverse peptide is a peptide with a reversed sequence in all D amino acids. An example is that […] becomes […]. The EC50 of these reference compounds for ferroportin internalization/degradation was determined according to the FPN activity assay described above. These peptides served as control standards.
# [2] = target: T2, ferroportin (Homo sapiens, UniProt Q9NP59); assay: T47D cell-based ferroportin internalization assay in presence of 0.5% mouse serum albumin (MSA); settings: T47D cells
# T2 sequence (Q9NP59 1-571): T1 sequence (Q9NP59 1-571)
# Protocol: The potency of the peptides in causing ferroportin internalization was evaluated in a T47D cell-based assay. […] In this internalization assay, the potency of the test peptides was evaluated in presence of serum albumin which is the main protein component in the blood. T47D cells were maintained in RPMI media (containing required amount of fetal bovine serum) and regularly sub-cultured. In preparation for the assay, the cells were seeded in 96-well plates at a density of 80-100 k cells per well in 100 ul volume and allowed to rest overnight. On the next day, test peptides were first prepared in dilution series (10-point series, starting concentration of ˜5 μM, typically 3-4×fold dilution steps), all with 0.5% mouse serum albumin (MSA purified from mouse serum; Sigma, A3139). The test peptide dilution series were allowed to incubate at room temperature for 30 min. Then the media was aspirated from the 96-well cell plate and test peptide dilution series were added. After 1 hr incubation, the media with test peptides was aspirated out and AF647-conjugated detection peptide was added at fixed concentration of 200 nM. The AF647-conjugated detection peptide was previously verified to bind to ferroportin and cause its internalization. The cells were washed again after a 2 hr incubation in preparation for flow cytometry analysis. The Median Fluorescence Intensity (MFI) of the AF647-positive population was measured (after removing dead cells and non-singlets from the analysis). The MFI values were used to generate a dose-response curve and obtain IC50 potencies for the test peptides. The IC50 potencies were calculated by using 4-parameter non-linear fitting function in Graphpad Prism (Table 6A).
Structure (SMILES),IC50 [1] [nM],IC50 [2] [nM]
CCCCCCCCCCCCCCCC(=O)NCCCCCC(=O)NCCCC[C@H](NC(=O)C[C@H](Cc1ccccc1)NC(=O)[C@H]1CCC=CCC[C@H](NC(=O)CC(C)C)C(=O)N[C@@H]([C@@H](C)O)C(=O)N[C@@H](Cc2c[nH]cn2)C(=O)N[C@@H](C(c2ccccc2)c2ccccc2)C(=O)N2CCC[C@H]2C(=O)N[C@@H](C)C(=O)N[C@@H]([C@@H](C)CC)C(=O)N1)C(=O)N[C@H](CCCCN)C(N)=O [Compd 76],10 to 100,10 to 100
CCCCCCCCCCCCCCCC(=O)NCCCCCC(=O)NCCCC[C@H](NC(=O)C[C@H](Cc1ccccc1)NC(=O)[C@@H]1CCC=CCC[C@H](NC(=O)CC(C)C)C(=O)N[C@@H]([C@@H](C)O)C(=O)N[C@@H](Cc2c[nH]cn2)C(=O)N(C)[C@@H](Cc2ccccc2)C(=O)N2CCC[C@H]2C(=O)N[C@@H](C)C(=O)N[C@@H]([C@@H](C)CC)C(=O)N1)C(=O)N[C@H](CCCCN)C(N)=O [Compd 51] (Isovaleryl-[Hag]TH[NMeF]PAI[Hag][β3hF]K([Ahx-Palmitoyl])[dK]-NH2; staple 1-8),,> 500
CCCCCCCCCCCCCCCC(=O)NCCCCCC(=O)NCCCC[C@H](NC(=O)C[C@H](Cc1ccccc1)NC(=O)[C@@H]1CCC=CCC[C@H](NC(=O)CC(C)C)C(=O)N[C@@H]([C@@H](C)O)C(=O)N(C)[C@@H](Cc2c[nH]cn2)C(=O)N[C@@H](C(c2ccccc2)c2ccccc2)C(=O)N2CCC[C@H]2C(=O)N[C@@H](C)C(=O)N[C@@H]([C@@H](C)CC)C(=O)N1)C(=O)N[C@H](CCCCN)C(N)=O [Compd 50],,> 500
CCCCCCCCCCCCCCCC(=O)NCCCCCC(=O)NCCCC[C@@H]1NC(=O)[C@@H]2CCCN2C(=O)[C@H](C(c2ccccc2)c2ccccc2)NC(=O)[C@H](Cc2c[nH]cn2)NC(=O)[C@H]([C@@H](C)O)NC(=O)[C@@H](NC(=O)CC(C)C)CCCC=CCCC[C@@H](C(=O)N[C@H](CC(=O)N[C@H](CCCCN)C(N)=O)Cc2ccccc2)NC1=O [Compd 35] (Isovaleryl-[Nle(6-ylidene)]TH[Dip]PK([Ahx-Palmitoyl])[Nle(6-ylidene)][β3hF][dK]-NH2; staple 1-7),> 500,
CCCCCCCCCCCCCCCC(=O)NCCCCCC(=O)NCCCC[C@H](NC(=O)C[C@H](Cc1ccccc1)NC(=O)[C@@H]1CCC=CCC[C@H](NC(=O)CC(C)C)C(=O)N[C@@H]([C@@H](C)O)C(=O)N[C@@H](Cc2c[nH]cn2)C(=O)N[C@@H](C(c2ccccc2)c2ccccc2)C(=O)N2CCC[C@H]2C(=O)N[C@@H]([C@@H](C)CC)C(=O)N1)C(N)=O [Compd 19] (Isovaleryl-[Hag]TH[Dip]PI[Hag][β3hF]K([Ahx-Palmitoyl])-NH2; staple 1-7),> 500,
CCCCCCCCCCCCCCCC(=O)NCCCCCC(=O)NCCCC[C@H](NC(=O)C[C@H](Cc1ccccc1)NC(=O)[C@@H](CCCCN)NC(=O)[C@@H](NC(=O)[C@@H]1CCC=CCC[C@H](NC(=O)[C@@H](NC(=O)[C@H](Cc2c[nH]cn2)NC(=O)[C@@H](NC(=O)[C@H](CCC(=O)O)NC(=O)CC(C)C)[C@@H](C)O)C(c2ccccc2)c2ccccc2)C(=O)N1)[C@@H](C)CC)C(=O)N[C@H](CCCCN)C(N)=O [Compd 11],> 500,
"CCCCCCCCCCCCCCCC(=O)NCCCCCC(=O)NCCCC[C@H](NC(=O)C[C@H](Cc1ccccc1)NC(=O)[C@@H]1CCC=CCC[C@H](NC(=O)CC(C)C)C(=O)N[C@@H]([C@@H](C)O)C(=O)N[C@@H](Cc2c[nH]cn2)C(=O)N[C@@H](C(c2ccccc2)c2ccccc2)C(=O)N2CCC[C@H]2C(=O)N1)C(N)=O (single isomer, unassigned) [Compd 20]",> 500,
CCCCCCCCCCCCCCCC(=O)NCCCCCC(=O)NCCCC[C@H](NC(=O)C[C@H](Cc1ccccc1)NC(=O)[C@@H]1CCC=CCC[C@H](NC(=O)CC(C)C)C(=O)N[C@@H]([C@@H](C)O)C(=O)N[C@@H](Cc2c[nH]cn2)C(=O)N[C@@H](C(c2ccccc2)c2ccccc2)C(=O)N2CCC[C@H]2C(=O)NCCCC(=O)N1)C(=O)N[C@H](CCCCN)C(N)=O [Compd 66] (Isovaleryl-[Hag]TH[Dip]P[GABA][Hag][β3hF]K([Ahx-Palmitoyl])[dK]-NH2; staple 1-7),10 to 100,
